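Interpolation was linear, between the two tested concentrations surrounding the appropriate level; five concentrations were tested over 48 hours in 96-well plates. Abbreviation: GI50, concentration required for 50% inhibition of growth. TGI denotes the concentration required for complete inhibition of growth.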
Experiments:
Test in all cases: NCI-60 cell line screen, 48 h
[1] = test system: NCI-H23 lung
[2] = test system: SN12C renal
[3] = test system: IGROV1 ovarian
[4] = test system: A549 NSCLC
[5] = test system: U251 CNS
[6] = test system: KM12 colon
[7] = test system: CCRF-CEM leukemia
[8] = test system: K-562 leukemia
[9] = test system: UACC-257 melanoma
[10] = test system: HS 578T breast
[11] = test system: MDA-MB-435
[12] = test system: PC-3 prostate
[13] = test system: EKVX NSCLC
[14] = test system: LOX IMVI melanoma
[15] = test system: SW-620 colon
[16] = test system: NCI/ADR-RES ovarian
[17] = test system: SNB-75 CNS
[18] = test system: DU-145 prostate
[19] = test system: OVCAR-4 ovarian
[20] = test system: HT29 colon
[21] = test system: TK-10 renal
[22] = test system: MOLT-4 leukemia
[23] = test system: A498 renal
[24] = test system: M14 melanoma
[25] = test system: SR leukemia
[26] = test system: HL-60(TB) leukemia
[27] = test system: SK-MEL-2 melanoma
[28] = test system: OVCAR-3 ovarian
[29] = test system: UO-31 renal
[30] = test system: RXF 393 renal
[31] = test system: MDA-MB-231 breast
[32] = test system: NCI-H226 lung
[33] = test system: SK-MEL-28 melanoma
[34] = test system: HCC-2998 colon
[35] = test system: HOP-92 NSCLC
[36] = test system: ACHN renal
[37] = test system: SF-539 CNS
[38] = test system: UACC-62 melanoma
[39] = test system: SF-295 CNS
[40] = test system: 786-0 renal
[41] = test system: COLO 205 colon
[42] = test system: CAKI-1 renal
[43] = test system: BT-549 breast
[44] = test system: OVCAR-8 ovarian
[45] = test system: HCT-116 colon
[46] = test system: T-47D breast
[47] = test system: SNB-19 CNS
[48] = test system: SK-MEL-5 melanoma
[49] = test system: SK-OV-3 ovarian
[50] = test system: OVCAR-5 ovarian
[51] = test system: SF-268 CNS
[52] = test system: NCI-H460 lung
[53] = test system: HCT-15 colon
[54] = test system: HOP-62 NSCLC
[55] = test system: MCF7 breast

COc1ccc(C(=O)NCCNc2nccc(-c3c(-c4ccc(F)cc4)nc4sccn34)n2)cc1 was tested, and the GI50 [1] was 8.95 µM, the TGI [1] was > 100 µM and the GI50 [2] was 7.8 µM. For the same compound, the TGI [2] was > 100 µM, the GI50 [3] was 2.53 µM and the TGI [3] was 15.5 µM. For the same compound, the GI50 [4] was 3.89 µM, the TGI [4] was > 100 µM and the GI50 [5] was 4.47 µM. The TGI [5] was > 100 µM, the GI50 [6] was 2.99 µM and the TGI [6] was 22.4 µM. The GI50 [7] was 4.75 µM, the TGI [7] was > 100 µM and the GI50 [8] was 4.81 µM. For the same compound, the TGI [8] was > 100 µM, the GI50 [9] was 13.9 µM and the TGI [9] was 68.8 µM. For the same compound, the GI50 [10] was 6.12 µM, the TGI [10] was 72.3 µM and the GI50 [11] was 3.1 µM. For the same compound, the TGI [11] was 22.7 µM, the GI50 [12] was 10.9 µM and the TGI [12] was > 100 µM. It also gave a GI50 [13] of 5.03 µM, a TGI [13] of 73.9 µM and a GI50 [14] of 4.67 µM. For the same compound, the TGI [14] was > 100 µM, the GI50 [15] was 7.22 µM and the TGI [15] was > 100 µM. For the same compound, the GI50 [16] was 7.62 µM, the TGI [16] was > 100 µM and the GI50 [17] was 2.97 µM. For the same compound, the TGI [17] was 37.2 µM, the GI50 [18] was 1.04 µM and the TGI [18] was 18.9 µM. It also gave a GI50 [19] of 10.5 µM, a TGI [19] of 84 µM and a GI50 [20] of 2.5 µM. For the same compound, the TGI [20] was > 100 µM, the GI50 [21] was 16.1 µM and the TGI [21] was > 100 µM. The GI50 [22] was 6.97 µM, the TGI [22] was 57.8 µM and the GI50 [23] was 2.07 µM. For the same compound, the TGI [23] was 55 µM, the GI50 [24] was 6.45 µM and the TGI [24] was 30.9 µM. The GI50 [25] was 5.93 µM, the TGI [25] was 49.1 µM and the GI50 [26] was 13.6 µM. For the same compound, the TGI [26] was 47.8 µM, the GI50 [27] was 6.23 µM and the TGI [27] was 30.4 µM. The GI50 [28] was 1.24 µM, the TGI [28] was 19.9 µM and the GI50 [29] was 1.42 µM. It also gave a TGI [29] of 16.5 µM, a GI50 [30] of 4.05 µM and a TGI [30] of 39.4 µM. The GI50 [31] was 24.8 µM, the TGI [31] was > 100 µM and the GI50 [32] was 6 µM. For the same compound, the TGI [32] was 69.1 µM, the GI50 [33] was 12.8 µM and the TGI [33] was > 100 µM. The GI50 [34] was 9.72 µM, the TGI [34] was > 100 µM and the GI50 [35] was 13.4 µM. The TGI [35] was > 100 µM, the GI50 [36] was 2.67 µM and the TGI [36] was > 100 µM. The GI50 [37] was 16.3 µM, the TGI [37] was > 100 µM and the GI50 [38] was 4.03 µM. It also gave a TGI [38] of 28.4 µM, a GI50 [39] of 2.73 µM and a TGI [39] of 15.1 µM. For the same compound, the GI50 [40] was 8.04 µM, the TGI [40] was > 100 µM and the GI50 [41] was 3.01 µM. It also gave a TGI [41] of 22.8 µM, a GI50 [42] of 2.27 µM and a TGI [42] of 24.5 µM. For the same compound, the GI50 [43] was 7.95 µM, the TGI [43] was 31.2 µM and the GI50 [44] was 5.07 µM. For the same compound, the TGI [44] was > 100 µM, the GI50 [45] was 3.95 µM and the TGI [45] was 19.8 µM. The GI50 [46] was 5.78 µM, the TGI [46] was 34 µM and the GI50 [47] was 10.3 µM. For the same compound, the TGI [47] was > 100 µM, the GI50 [48] was 3.01 µM and the TGI [48] was 15.7 µM. For the same compound, the GI50 [49] was 13.7 µM, the TGI [49] was > 100 µM and the GI50 [50] was 39 µM. The TGI [50] was > 100 µM, the GI50 [51] was 2.61 µM and the TGI [51] was 33.5 µM. For the same compound, the GI50 [52] was 3.55 µM, the TGI [52] was > 100 µM and the GI50 [53] was 4.09 µM. The TGI [53] was > 100 µM, the GI50 [54] was 12.8 µM and the TGI [54] was > 100 µM. It also gave a GI50 [55] of 2 µM and a TGI [55] of 36.2 µM.

— PubChem BioAssay (NCI)
